Source: PubChem BioAssay (NCI)
“And” between values parts separate entries of the source, which are not always exact repeats. Equal values may be shown once.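 Interpolation was linear, between the two tested concentrations surrounding the appropriate level; five concentrations were tested over 48 hours in 96-well plates. GI50 = concentration required for 50% inhibition of growth. TGI: concentration producing complete growth inhibition.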

What was measured:
Test in all cases: NCI anticancer screen, dose series, 48 h
[1] = test system: EKVX NSCLC
[2] = test system: M14 melanoma
[3] = test system: HT29 colon
[4] = test system: K-562 leukemia
[5] = test system: HL-60(TB) leukemia
[6] = test system: LOX IMVI melanoma
[7] = test system: SNB-75 CNS
[8] = test system: OVCAR-5 ovarian
[9] = test system: A498 renal
[10] = test system: CAKI-1 renal

| Compound | GI50 [1] | TGI [1] | GI50 [2] | TGI [2] | GI50 [3] | TGI [3] | GI50 [4] | TGI [4] | GI50 [5] | TGI [5] | GI50 [6] | TGI [6] | GI50 [7] | TGI [7] | GI50 [8] | TGI [8] | GI50 [9] | TGI [9] | TGI [10] | GI50 [10] |
| --- | --- | --- | --- | --- | --- | --- | --- | --- | --- | --- | --- | --- | --- | --- | --- | --- | --- | --- | --- | --- |
| CN(CCO)c1ccc(N2Cc3ccccc3OC3=C2C(=O)c2c(O)ccc(O)c2C3=O)cn1 | 0.284 µM | 1.45 µM | 0.192 µM | 0.409 µM | 0.172 µM | 0.468 µM | 0.0759 µM | > 100 µM | 0.114 µM | 0.406 µM | 0.114 µM | 0.33 µM | 0.348 µM | 1.8 µM | 0.325 µM | 0.997 µM | 2.17 µM | 5.66 µM |  |  |
| Cc1c(/C=N/NC(=O)c2ccc(Cl)cc2)c(=O)n(-c2ccccc2)n1C |  | > 100 µM |  | > 100 µM |  | > 100 µM |  | > 100 µM |  | > 100 µM |  | > 100 µM |  | > 100 µM |  |  |  |  |  |  |
| CCCO/S(=N\S(=O)(=O)c1ccccc1)c1ccccc1[N+](=O)[O-] (centres undefined) |  | > 100 µM |  | > 100 µM |  | > 100 µM |  | > 100 µM |  |  |  | > 100 µM |  | > 100 µM |  | > 100 µM |  |  | > 100 µM |  |
| O=C(/C=C/c1ccccc1Cl)NC1C=Nc2ccc([N+](=O)[O-])cc2NC1 (centres undefined) |  | > 100 µM |  | > 100 µM |  |  |  | > 100 µM |  | > 100 µM |  | > 100 µM |  | > 100 µM |  | > 100 µM |  | > 100 µM | > 100 µM |  |
| COCC1(CO)C(=O)C2CCN1CC2 (centres undefined) | 18.1 µM | 43.4 µM | 15.4 µM | 31.6 µM | 28.1 µM | > 63.9 µM | 19.9 µM | 58.5 µM | 18.9 µM | 45.2 µM | 18.2 µM | 37.2 µM | 21.9 µM | > 94.2 µM | 26.2 µM | > 55.7 µM | 23 µM | 63.9 µM |  |  |
| CCC1CCc2c(c(=O)oc3c2cc(OC)c2cccc(OC)c23)C1 (centres undefined) |  | > 100 µM |  | > 100 µM |  | > 100 µM |  | > 100 µM |  | 69.6 µM |  |  |  | > 100 µM |  | > 100 µM |  | > 100 µM | > 100 µM |  |
| COc1c[c]([Hg][O]C(C)=O)c(OC)c(NC(=O)CC(C)=O)[c]1[Hg][O]C(C)=O | 19.9 µM | 36.3 µM | 2.11 µM | 4.56 µM | 4.21 µM | 19.6 µM | 1.48 µM | 5.53 µM | 2.41 µM | 5.35 µM |  |  | 14 µM | 28 µM | 19.3 µM | 33.7 µM | 8.03 µM | 22.6 µM | 4.26 µM | 2.26 µM |
| COC1(OC)CC2C(=O)N(Cc3ccccc3)C1C=C2S(=O)(=O)c1ccccc1 (centres undefined) |  | 33.1 µM |  | 35 µM |  | 33.8 µM |  | 63.2 µM |  | 36.7 µM |  | 28.2 µM |  | 93.9 µM |  |  |  | 45 µM |  |  |
| CCn1c(=O)c2c(=O)c3c4c(oc3oc2c2ccccc21)C(=O)c1ccccc1C4=O | 1.47 µM | > 100 µM | > 100 µM | > 100 µM |  |  | 1.73 µM | > 100 µM |  |  |  | > 100 µM | > 20.8 µM | > 53.3 µM | > 100 µM | > 100 µM | 0.461 µM | > 100 µM |  |  |
| Cc1nc([N+](=O)[O-])cn1CC(=N)N |  | > 100 µM |  | > 100 µM |  | > 100 µM |  | > 100 µM |  | > 100 µM |  | > 100 µM |  | > 100 µM |  |  |  | > 100 µM |  |  |
| COC(=O)[C@@H](C)C[C@H](Cc1ccccc1)NC(=O)c1csc([C@@H](C[C@H](C(C)C)N(C)C(=O)[C@@H](NC(=O)[C@H]2CCCCN2C)C2CCCCC2)OC(C)=O)n1 | 0.00278 µM |  | 0.000304 µM and < 0.0025 µM | 0.00312 µM and < 0.0025 µM | 0.000314 µM and 0.0025 µM | 4.95 µM | 0.000374 µM and 0.0025 µM | 4.33 µM | 0.000306 µM and < 0.0025 µM | 0.00159 µM and < 0.0025 µM | 0.00139 µM and 0.0025 µM | 23 µM | 0.00103 µM and 0.0025 µM | 22.2 µM | 0.00685 µM and 0.0025 µM | > 25 µM | 0.000272 µM and 0.0025 µM |  |  |  |
| C/C(CC(=O)Nc1cccc(Cl)c1C)=N\NC(=O)c1ccncc1 |  | > 100 µM |  | > 100 µM |  | > 100 µM |  | > 100 µM |  | > 100 µM |  | > 100 µM |  | > 100 µM |  | > 100 µM |  |  |  |  |
| COc1ccc(CCNC(=O)c2ccc(NC3=C(Cl)C(=O)N(Cc4ccccc4)C3=O)cc2)cc1OC | 24.9 µM | > 100 µM | 5.47 µM | > 100 µM | 7.88 µM | > 100 µM | 2.21 µM | 5.21 µM | 2.83 µM | 4.49 µM |  |  | 38.4 µM | > 100 µM | 16.9 µM | 43.7 µM | 27.2 µM | 72.1 µM | 9.11 µM | 3.04 µM |
| C=C1C(=O)OC2CC(C)C3(O)CCC(=O)C3(C)CC12 (centres undefined) |  | > 100 µM |  | 55.6 µM |  | 43.4 µM |  |  |  | 39.2 µM |  | > 100 µM |  | 84.3 µM |  | 74.3 µM |  | 66.2 µM | 44.4 µM |  |
| O=[N+]([O-])c1ccc(N2N=C(c3ccc(NCc4nc5ccccc5[nH]4)cc3)CC2c2ccco2)cc1 (centres undefined) |  |  |  | 61.3 µM |  | 90.6 µM |  | > 100 µM |  | 48.9 µM |  | 41.6 µM |  | > 100 µM |  | > 100 µM |  | > 100 µM | > 100 µM |  |
| CCN(Cc1ccccc1C)c1ccc(CO)c(Cl)c1 |  |  | 15.3 µM | 31.2 µM | 9.97 µM | 26.3 µM | 3.1 µM | 13.8 µM | 11.3 µM | 34.4 µM | 17.6 µM | 33 µM | 9.62 µM | 25 µM | 0.391 µM | 1.74 µM | 0.0283 µM | 0.114 µM | 32 µM | 7.88 µM |
| O=C(Nc1ccc(F)cc1)c1cc(S(=O)(=O)Nc2nc3ccccc3o2)c(SCc2ccccc2)cc1Cl | 17.1 µM | 34 µM | 16 µM | 30.8 µM | 27 µM | > 100 µM | 24.7 µM | 99.6 µM |  |  | 18 µM | 34.2 µM | 24.3 µM | 56.9 µM | 19.7 µM | 35.1 µM | 17.2 µM | 32.5 µM | 37.7 µM | 18.4 µM |
| CN[C@@H](C)[C@@H](NC)c1ccccc1 |  | > 100 µM |  | > 100 µM |  | > 100 µM |  | > 100 µM |  |  |  | > 100 µM |  | > 100 µM |  |  |  | > 100 µM | > 100 µM |  |
| Cc1cccc(C)c1NC(=O)C(=O)C(C(=O)c1ccccc1-c1ccccc1)C1OC(=O)c2ccccc21 (centres undefined) |  | 65.4 µM |  | 29.3 µM |  | > 100 µM |  | > 100 µM |  | 88.9 µM |  | 45 µM |  | 53.4 µM |  | 48.9 µM |  | 48.9 µM |  |  |
